# Patent US12077503B2, “Substituted cyclic amides and their use as herbicides” (FMC CORPORATION, priority 2015, dated 2024)
# Key:
# Format in all cases: in vivo
# [1] = system: ducksalad (Heteranthera limosa); assay: Test B flooded paddy test; conditions: Heteranthera limosa, 250 g ai/ha, Flood; 0 to 100 scale where 0 is no effect and 100 is complete control; read-out: Ducksalad plant response rating
# Outline: (§1)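 Evaluation by eye, against controls, occurred 13–15 d post-treatment in a greenhouse, using a 0 (no effect) to 100 (complete control) scale. Application was into the paddy water, 3 cm deep over the soil, on 2-leaf plants.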
# [2] = system: barnyardgrass (Echinochloa crus-galli); assay: Test B flooded paddy test; conditions: Echinochloa crus-galli, 250 g ai/ha, Flood; 0 to 100 scale where 0 is no effect and 100 is complete control; read-out: Barnyardgrass plant response rating
# Outline: as §1
# [3] = system: sedge, umbrella (small-flower umbrella sedge, Cyperus difformis); assay: Test B flooded paddy test; conditions: Cyperus difformis, 250 g ai/ha, Flood; 0 to 100 scale where 0 is no effect and 100 is complete control; read-out: Sedge, Umbrella plant response rating
# Outline: as §1
# rice (Oryra sativa) = assay: Test B flooded paddy test; conditions: Oryza sativa, 250 g ai/ha, Flood; 0 to 100 scale where 0 is no effect and 100 is complete control; read-out: Rice plant response rating
# Outline: as §1
# [4] = system: giant foxtail (Setaria faberii); assay: Test A postemergence; conditions: Setaria faberi, post-emergence, 240 h, postemergence; for pest or weed control at 125 g/ha: 125 g ai/ha, visual injury vs untreated controls after approx. 10 d, 0 = no effect, 100 = complete control, read-out: Foxtail, Giant plant response rating (0 to 100 scale); for pest or weed control at 500 g/ha: 500 g ai/ha, 0 to 100 scale, 0 is no effect, 100 is complete control, read-out: Foxtail, Giant plant response rating
# Outline: (§2)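 Greenhouse, ~10 d after spray; visual injury vs untreated controls, 0 = no effect, 100 = complete control. Preemergence: directed soil spray over planted seeds. Postemergence: plants 2–10 cm, 1–2 leaf stage. Loam/sand blend. Compound in non-phytotoxic solvent with surfactant.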
# [5] = system: wheat (Triticum aestivum); assay: Test A postemergence; conditions: Triticum aestivum, post-emergence, 240 h, postemergence; for plant injury at 125 g/ha: 125 g ai/ha, visual injury vs untreated controls after approx. 10 d, 0 = no effect, 100 = complete control, read-out: Wheat plant response rating (0 to 100 scale); for plant injury at 500 g/ha: 500 g ai/ha, 0 to 100 scale, 0 is no effect, 100 is complete control, read-out: Wheat plant response rating
# Outline: as §2
# Kochia (Kochia scoparia) = assay: Test A postemergence; conditions: Bassia scoparia, post-emergence, 240 h, postemergence; for pest or weed control at 125 g/ha: 125 g ai/ha, visual injury vs untreated controls after approx. 10 d, 0 = no effect, 100 = complete control, read-out: Kochia plant response rating (0 to 100 scale); for pest or weed control at 500 g/ha: 500 g ai/ha, 0 to 100 scale, 0 is no effect, 100 is complete control, read-out: Kochia plant response rating
# Outline: as §2
# [6] = system: ragweed (common ragweed, Ambrosia elatior); assay: Test A postemergence; conditions: Ambrosia artemisiifolia, post-emergence, 240 h, postemergence; for pest or weed control at 125 g/ha: 125 g ai/ha, visual injury vs untreated controls after approx. 10 d, 0 = no effect, 100 = complete control, read-out: Ragweed plant response rating (0 to 100 scale); for pest or weed control at 500 g/ha: 500 g ai/ha, 0 to 100 scale, 0 is no effect, 100 is complete control, read-out: Ragweed plant response rating
# Outline: as §2
# [7] = system: pigweed (Amaranthus retroflexus); assay: Test A postemergence; conditions: Amaranthus retroflexus, post-emergence, 240 h, postemergence; for pest or weed control at 125 g/ha: 125 g ai/ha, visual injury vs untreated controls after approx. 10 d, 0 = no effect, 100 = complete control, read-out: Pigweed plant response rating (0 to 100 scale); for pest or weed control at 500 g/ha: 500 g ai/ha, 0 to 100 scale, 0 is no effect, 100 is complete control, read-out: Pigweed plant response rating
# Outline: as §2
# corn (Zea mays) = assay: Test A postemergence; conditions: Zea mays, post-emergence, 240 h, postemergence; for plant injury at 125 g/ha: 125 g ai/ha, visual injury vs untreated controls after approx. 10 d, 0 = no effect, 100 = complete control, read-out: Corn plant response rating (0 to 100 scale); for plant injury at 500 g/ha: 500 g ai/ha, 0 to 100 scale, 0 is no effect, 100 is complete control, read-out: Corn plant response rating
# Outline: as §2
# [8] = system: barnyardgrass (Echinochloa crus-galli); assay: Test A postemergence; conditions: Echinochloa crus-galli, post-emergence, 240 h, postemergence; for pest or weed control at 125 g/ha: 125 g ai/ha, visual injury vs untreated controls after approx. 10 d, 0 = no effect, 100 = complete control, read-out: Barnyardgrass plant response rating (0 to 100 scale); for pest or weed control at 500 g/ha: 500 g ai/ha, 0 to 100 scale, 0 is no effect, 100 is complete control, read-out: Barnyardgrass plant response rating
# Outline: as §2
# [9] = system: ryegrass, Italian (Italian ryegrass, Lolium multiflorum); assay: Test A postemergence; conditions: Lolium multiflorum, post-emergence, 240 h, postemergence; for pest or weed control at 125 g/ha: 125 g ai/ha, visual injury vs untreated controls after approx. 10 d, 0 = no effect, 100 = complete control, read-out: Ryegrass, Italian plant response rating (0 to 100 scale); for pest or weed control at 500 g/ha: 500 g ai/ha, 0 to 100 scale, 0 is no effect, 100 is complete control, read-out: Ryegrass, Italian plant response rating
# Outline: as §2
# [10] = system: blackgrass (Alopecurus myosuroides); assay: Test A postemergence; conditions: Alopecurus myosuroides, post-emergence, 240 h, postemergence; for pest or weed control at 125 g/ha: 125 g ai/ha, visual injury vs untreated controls after approx. 10 d, 0 = no effect, 100 = complete control, read-out: Blackgrass plant response rating (0 to 100 scale); for pest or weed control at 500 g/ha: 500 g ai/ha, 0 to 100 scale, 0 is no effect, 100 is complete control, read-out: Blackgrass plant response rating
# Outline: as §2
# [11] = system: Galium (catchweed bedstraw, Galium aparine); assay: Test A postemergence; conditions: Galium, post-emergence, 240 h, postemergence; for pest or weed control at 125 g/ha: 125 g ai/ha, visual injury vs untreated controls after approx. 10 d, 0 = no effect, 100 = complete control, read-out: Galium plant response rating (0 to 100 scale); for pest or weed control at 500 g/ha: 500 g ai/ha, 0 to 100 scale, 0 is no effect, 100 is complete control, read-out: Galium plant response rating
# Outline: as §2
# [12] = system: ryegrass, Italian (Italian ryegrass, Lolium multiflorum); assay: Test A preemergence; conditions: Lolium multiflorum, pre-emergence, 240 h, preemergence, 0 to 100 scale where 0 is no effect and 100 is complete control, read-out: Ryegrass, Italian plant response rating; for pest or weed control at 125 g/ha: 125 g ai/ha, visual injury rating, approximately 10 d; for pest or weed control at 500 g/ha: 500 g ai/ha
# Outline: as §2
structure (smiles),measurement,setting,value
Cc1cc([C@H]2CN(C)C(=O)[C@@H]2C(=O)Nc2ccccc2F)no1 [Compound 1194],pest or weed control at 250 g/ha,[1],0%
same,pest or weed control at 250 g/ha,[2],0%
same,pest or weed control at 250 g/ha,[3],0%
same,pest or weed control at 250 g/ha,rice (Oryra sativa),0%
same,pest or weed control at 125 g/ha,[4],0%
same,pest or weed control at 500 g/ha,[4],20%
same,plant injury at 125 g/ha,[5],0%
same,plant injury at 500 g/ha,[5],0%
same,pest or weed control at 125 g/ha,Kochia (Kochia scoparia),0%
same,pest or weed control at 500 g/ha,Kochia (Kochia scoparia),0%
same,pest or weed control at 125 g/ha,[6],0%
same,pest or weed control at 500 g/ha,[6],0%
same,pest or weed control at 125 g/ha,[7],0%
same,pest or weed control at 500 g/ha,[7],0%
same,plant injury at 125 g/ha,corn (Zea mays),0%
same,plant injury at 500 g/ha,corn (Zea mays),0%
same,pest or weed control at 125 g/ha,[8],0%
same,pest or weed control at 500 g/ha,[8],20%
same,pest or weed control at 125 g/ha,[9],0%
same,pest or weed control at 500 g/ha,[9],0%
same,pest or weed control at 125 g/ha,[10],0%
same,pest or weed control at 500 g/ha,[10],0%
same,pest or weed control at 125 g/ha,[11],0%
same,pest or weed control at 500 g/ha,[11],0%
same,pest or weed control at 125 g/ha,[12],0%
same,pest or weed control at 500 g/ha,[12],0%
Cc1cc([C@H]2CN(C)C(=O)[C@@H]2C(=O)Nc2cccc(F)c2F)on1 [Compound 1196],pest or weed control at 250 g/ha,[1],30%
same,pest or weed control at 250 g/ha,[2],0%
same,pest or weed control at 250 g/ha,[3],0%
same,pest or weed control at 250 g/ha,rice (Oryra sativa),0%
same,pest or weed control at 125 g/ha,[4],30%
same,pest or weed control at 500 g/ha,[4],80%
same,plant injury at 125 g/ha,[5],0%
same,plant injury at 500 g/ha,[5],0%
same,pest or weed control at 125 g/ha,Kochia (Kochia scoparia),0%
same,pest or weed control at 500 g/ha,Kochia (Kochia scoparia),0%
same,pest or weed control at 125 g/ha,[6],0%
same,pest or weed control at 500 g/ha,[6],0%
same,pest or weed control at 125 g/ha,[7],0%
same,pest or weed control at 500 g/ha,[7],0%
same,plant injury at 125 g/ha,corn (Zea mays),0%
same,plant injury at 500 g/ha,corn (Zea mays),0%
same,pest or weed control at 125 g/ha,[8],70%
same,pest or weed control at 500 g/ha,[8],90%
same,pest or weed control at 125 g/ha,[9],0%
same,pest or weed control at 500 g/ha,[9],0%
same,pest or weed control at 125 g/ha,[10],0%
same,pest or weed control at 500 g/ha,[10],0%
same,pest or weed control at 125 g/ha,[11],0%
same,pest or weed control at 500 g/ha,[11],0%
same,pest or weed control at 125 g/ha,[12],0%
same,pest or weed control at 500 g/ha,[12],0%
N#Cc1cc([C@H]2CNC(=O)[C@@H]2C(=O)Nc2ccccc2F)ccc1F [Compound 1199],pest or weed control at 250 g/ha,[1],95%
same,pest or weed control at 250 g/ha,[2],40%
same,pest or weed control at 250 g/ha,[3],0%
same,pest or weed control at 250 g/ha,rice (Oryra sativa),0%
same,pest or weed control at 125 g/ha,[4],70%
same,pest or weed control at 500 g/ha,[4],90%
same,plant injury at 125 g/ha,[5],0%
same,plant injury at 500 g/ha,[5],0%
same,pest or weed control at 125 g/ha,Kochia (Kochia scoparia),20%
same,pest or weed control at 500 g/ha,Kochia (Kochia scoparia),40%
same,pest or weed control at 125 g/ha,[6],0%
same,pest or weed control at 500 g/ha,[6],0%
same,pest or weed control at 125 g/ha,[7],0%
same,pest or weed control at 500 g/ha,[7],20%
same,plant injury at 125 g/ha,corn (Zea mays),0%
same,plant injury at 500 g/ha,corn (Zea mays),0%
same,pest or weed control at 125 g/ha,[8],70%
same,pest or weed control at 500 g/ha,[8],100%
same,pest or weed control at 125 g/ha,[9],0%
same,pest or weed control at 500 g/ha,[9],20%
same,pest or weed control at 125 g/ha,[10],0%
same,pest or weed control at 500 g/ha,[10],0%
same,pest or weed control at 125 g/ha,[11],20%
same,pest or weed control at 500 g/ha,[11],40%
same,pest or weed control at 125 g/ha,[12],0%
same,pest or weed control at 500 g/ha,[12],0%
